What was measured:
[1] = tested on: Akt phosphorylation in PC3-ML cells; test: Akt phosphorylation in PC3-ML cells (Western blot); assay type: cell-based, human; conditions: 20 μM AG-1296
Description: Bone marrow samples from normal male donors (ages 18-45) were supplied by Cambrex (Poietics™ Donor Program). Samples were centrifuged at 1,500 rpm in order to separate the soluble and cellular phases. The supernatant was filtered using 0.8 μm and 0.22 μm filters in succession. 50 μl of bone marrow aspirate was administered to cells in 1 ml of medium (1:20 final dilution).
For experiments performed in the presence of serum, cells were cultured in DMEM supplemented with 10% FBS and 50 μg/ml gentamycin for 24 hours prior to exposure to bone marrow. For experiments in the absence of serum (starved cells), cells were washed twice with PBS, the growth medium was replaced with serum-free DMEM, and the cells were incubated for 4 hours prior to exposure to bone marrow preparations. When used, AG-1296, a specific inhibitor of PDGF receptors (Rice et al., 1999, Amer. J. Path. 155, 213-21) was added to cultures 30 min. prior to exposure to bone marrowaspirate. IMC-3G3 antibodies were administered as described at pre-treatment times as stated below.

[2] = Overall cytotoxicity of coadministration of docetaxel and IMC-A12; assay type: in vivo, SCID mice; conditions: compared to control tumor-bearing animals
Description: (§1) All treatments were administered intraperitoneally (ip). Docetaxel was administered once a week. A12 was administered three times a week. […] Animals were weighed twice a week. Blood samples were collected from orbital sinus weekly.
Cytotoxicity of coadministration of docetaxel and IMC-A12 was examined.

LuCaP 35V xenograft [3] = test: LuCaP 35V subcutaneous xenograft tumor growth
Description: Tumor bits (20 to 30 mm^3) of androgen-independent (AI) LuCaP 35V were implanted subcutaneously (s.c.) into 32 six-week-old castrated SCID mice respectively as previously described (4). […] Group 1 animals received docetaxel treatment at a dose of 20 mg/kg. Group 2 animals received docetaxel treatment at a dose of 10 mg/kg. Group 3 animals received combined treatment of 10 mg/kg docetaxel and 40 mg/kg A12. Group 4 animals received combined treatment of 20 mg/kg docetaxel and 40 mg/kg A12. All treatments were administered intraperitoneally (ip). Docetaxel was administered once a week. A12 was administered three times a week. All animals were treated for four weeks and monitored for additional four weeks before euthanization. Tumors were measured twice weekly and tumor volume was estimated by the formula: volume=L×W^2/2. Following our University of Washington IACUC approved animal protocol, some animals were euthanized at an earlier time when tumor reached a volume of 1000 mm^3 or when animal weight loss exceeded 20% of initial body weight. Animals were weighed twice a week.

[4] = tested on: LuCaP 23.1 prostate cancer cells; test: IMC-A12 + docetaxel, LuCaP 23.1 tibial bone metastases, six weeks (present-tense example); assay type: in vivo, castrated SCID mice; conditions: weekly PSA, during and after six weeks of treatment
Description: SCID mice are castrated 2 weeks prior to tibial tumor injections. Bone metastases are generated by direct injection of LuCaP 23.1 prostate cancer cells into the tibia of the mice, giving rise to osteoblastic lesions. The xenografts express IGF-IR. Serum PSA levels are measured biweekly to evaluate tumor growth. When serum PSA levels reach 5-10 ng/ml indicating established tumor, animals are randomized into four groups.
In two groups, 40 mg/kg of IMC-A12 are injected i.p. three times a week for six weeks with one group receiving IMC-A12+docetaxel 20 mg/kg i.p once a week for 6 weeks and a second group IMC-A12+docetaxel 10 mg i.p. three times a week for 6 weeks. Control groups receive 10 or 20 mg docetaxel i.p. without IMC-A12.
Animals are monitored with weekly PSA measurements. After termination of treatment, animals continue to be monitored with weekly PSA measurements until tumors in the docetaxel only groups show tumor regrowth. […] Reductions in PSA levels are observed to continue, even after termination of treatment at six weeks.
As indicated above, BMD measurements are made at the time of engraftment and at sacrifice, and radiographs are taken just prior to sacrifice.

LuCaP 35V xenograft [5] = test: Serum PSA in mice carrying LuCaP 35V xenografts (IMx Total PSA Assay); assay type: in vivo, castrated SCID mice
Description: as §1

LuCaP 35V xenograft [6] = test: TUNEL / propidium staining flow cytometry of tumor cells at time of sacrifice; assay type: in vivo, castrated SCID mice; conditions: percentage of tumors; for Apoptosis (%): four weeks after treatment termination; for G1 arrest (%) / G2 arrest (%) / Normal cycle (%): time of sacrifice
Description: After euthanization, tumors were collected and halved. A portion of the tumors were fixed in 10% neutral buffer formalin (NFB) and embedded in paraffin. Five micron sections were prepared for immunohistochemistry (IHC) staining. The remaining portion of the tumors was separated into single cells mechanically by mincing and filtering through 70 μm nylon sieves.
The combined in vivo effect of docetaxel and A12 treatment on cell cycle and cell survival at the experimental end point was measured by terminal deoxynucleotidyl transferase-mediated nick end labeling (TUNEL) assay and propidium (PI) staining using the Apop-Direct kit (BD BioScience) as previously described. Briefly, 1×10^6 cells from the single-cell suspension were fixed with 10% neutral buffer formalin (NBF) followed by 70% ethanol alcohol at −20° C. for 30 min. After several washes, cells were permeabilized with 0.1% Triton X-100 and incubated with FITC-conjugated dUTP and terminal deoxynucleotidyl transferase enzyme (TdT) at 37° C. for 1 h, followed by an incubation with PI/RNase buffer (100 μg/ml of PI, 50 μg/ml RNase) at room temperature for 60 min. Samples were analyzed by flow cytometry using a BD FACscan. Data were analyzed with CellQuest^PRO software.

[7] = tested on: LuCaP 23.1 human prostate tumor; test: Docetaxel with or without A12, LuCaP 23.1 intratibial xenografts, four weeks; assay type: in vivo, SCID mice
Description: LuCaP 23.1 human prostate tumor bits (20 to 30 mm^3) were mechanically digested. 2-5×10^5 viable LuCaP 23.1 cells were injected into the tibiae of 6-8 wk old SCID mice. 21 mice randomized into three groups were used for the study. After tumor injection, serum PSA was monitored weekly. Treatment started when serum PSA level reached 5-10 ng/ml, an indication of tumor growth. Group 1 received control vehicle saline buffer. Group 2 received 20 mg/kg of docetaxel i.p once a week for 4 weeks. Group 3 received 20 mg/kg of docetaxel once a week and 40 mg/kg of A12 i.p. three times a week for 4 weeks. To determine whether the response to treatment was osteoblastic or osteolytic, BMD was measured by Dexa-scan and x-rays of the animals at the end point of all treatments.

murine IGF-IR = murine IGF-IR (Mus musculus, UniProt Q60751); test: Cross-reactivity of A12 with murine IGF-IR; assay type: binding
Sequence of murine IGF-IR (Q60751 31-1373): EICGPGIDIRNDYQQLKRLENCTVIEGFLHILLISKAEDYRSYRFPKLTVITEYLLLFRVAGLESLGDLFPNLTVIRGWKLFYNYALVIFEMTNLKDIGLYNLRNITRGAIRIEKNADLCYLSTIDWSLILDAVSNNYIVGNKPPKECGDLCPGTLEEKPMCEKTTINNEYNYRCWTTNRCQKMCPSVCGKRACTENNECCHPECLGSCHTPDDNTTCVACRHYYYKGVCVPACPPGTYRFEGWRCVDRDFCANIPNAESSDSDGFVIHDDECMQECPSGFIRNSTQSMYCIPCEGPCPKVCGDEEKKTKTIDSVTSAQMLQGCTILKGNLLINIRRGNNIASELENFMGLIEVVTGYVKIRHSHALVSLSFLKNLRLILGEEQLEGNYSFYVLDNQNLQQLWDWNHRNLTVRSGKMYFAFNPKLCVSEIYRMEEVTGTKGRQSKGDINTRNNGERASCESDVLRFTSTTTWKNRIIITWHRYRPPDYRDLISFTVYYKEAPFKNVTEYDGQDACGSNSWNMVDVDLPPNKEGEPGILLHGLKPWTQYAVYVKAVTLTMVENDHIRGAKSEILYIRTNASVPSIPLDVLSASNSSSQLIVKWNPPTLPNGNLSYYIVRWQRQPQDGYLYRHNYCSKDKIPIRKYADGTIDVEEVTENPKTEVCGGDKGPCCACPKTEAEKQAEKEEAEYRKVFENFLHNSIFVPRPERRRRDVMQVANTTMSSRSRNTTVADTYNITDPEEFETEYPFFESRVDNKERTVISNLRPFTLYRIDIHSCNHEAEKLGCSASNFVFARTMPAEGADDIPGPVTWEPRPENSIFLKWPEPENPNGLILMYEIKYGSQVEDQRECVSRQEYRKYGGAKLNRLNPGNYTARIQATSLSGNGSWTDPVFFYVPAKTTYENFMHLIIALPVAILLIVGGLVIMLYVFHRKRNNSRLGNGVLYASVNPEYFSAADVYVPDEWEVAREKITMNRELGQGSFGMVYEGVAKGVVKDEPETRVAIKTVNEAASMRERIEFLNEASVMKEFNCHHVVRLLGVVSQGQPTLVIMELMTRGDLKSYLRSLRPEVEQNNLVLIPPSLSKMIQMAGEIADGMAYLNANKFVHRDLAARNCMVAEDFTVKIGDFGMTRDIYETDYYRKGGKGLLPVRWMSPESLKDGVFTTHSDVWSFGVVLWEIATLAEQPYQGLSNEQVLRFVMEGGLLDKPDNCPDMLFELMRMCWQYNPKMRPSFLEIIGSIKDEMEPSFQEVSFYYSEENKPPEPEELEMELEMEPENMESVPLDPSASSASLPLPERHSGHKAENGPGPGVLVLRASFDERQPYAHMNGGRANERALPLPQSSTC

LuCaP 23.1 xenograft = test: IMC-A12 treatment of LuCaP 23.1 intratibial xenografts (PSA, BMD, radiographs); assay type: in vivo, castrated SCID mice
Description: Anti-IGF-IR antibody therapy for bone metastases. The effectiveness of treatment with anti-IGF-IR antibodies on metastatic growth of prostate cancer cells in bone was evaluated using prostate cancer cells injected directly into the tibia of SCID mice. By this method, metastatic tumors are established directly without reliance on chemotaxis dependent invasion from the circulation. A variety of tumor lines are available for establishing bone metastases. These include PC-3, LuCaP35, and LnCaP cells which produce osteolytic lesions and LuCaP 23.1 cells which produce osterblastic lesions.
To evaluate the effectiveness of treatment with IMC-A12, LuCaP 23.1 xenograft tumors were engrafted in SCID mice, and serum PSA levels were measured biweekly to evaluate tumor growth. All animals were castrated two weeks prior to tibial tumor cell engraftment. Administration of IMC-A12 to test mice was begun when serum PSA levels reached 5-10 ng/ml (indicating established tumors). 40 mg/kg IMC-A12 was injected i.p. three times a week for six weeks.
Bone mineral density (BMD) of the tumored tibiae and the contralateral tibiae without tumor was measured by Dual X-ray absorptiometry (PIXImus Lunar densitometer) performed on a 2.5 mm×2.5 mm area at the tumor cell injection site, or the corresponding site of the contralateral tibia at the time of engraftment. Biweekly assessment of lesions was made by serum PSA measurements. All animals were sacrificed when the bone lesions in the control group had recurred after castration based on serum PSA levels (LuCaP 35 >60 ng/ml, ng/ml, LuCaP 23.1 >500 ng/ml), radiographical appearance of the bone lesions or when animals became compromised. One hour prior to sacrifice animals were injected with BrdU to monitor tumor cell proliferation. Radiographs were taken prior to sacrifice (FaxitronX-ray MX-20), and BMD of both tibiae were measured at the time of sacrifice.

[8] = Post-treatment serum levels of A12; assay type: in vivo, SCID mice
Description: Serum levels of A12 were measured in animals that had received docetaxel combined with A12.

[9] = 40 mg/kg IMC-A12 i.p. three times a week for six weeks, at sacrifice

COc1cc2ncc(-c3ccccc3)nc2cc1OC [AG-1296, reference compound]
inhibition of bone marrow aspirate induced Akt activation [1]: more than 40%
inhibition of PDGF-BB induced Akt activation ([1]; 30 ng/ml PDGF-BB): completely inhibits

CC(=O)O[C@@]12CO[C@@H]1C[C@H](O)[C@@]1(C)C(=O)[C@H](O)C3=C(C)[C@@H](OC(=O)[C@H](O)[C@@H](NC(=O)OC(C)(C)C)c4ccccc4)C[C@@](O)([C@@H](OC(=O)c4ccccc4)[C@H]21)C3(C)C [docetaxel]
daily activity or behavior [2]: no abnormal daily activity or behavior changes
rate of tumor volume increase in the four weeks following treatment termination (LuCaP 35V xenograft [3]; docetaxel 20 mg/kg alone): 27.0±16.1 mm^3/week
tumor volume during the four-week treatment period (LuCaP 35V xenograft [3]; docetaxel 20 mg/kg with or without combined A12): tumor volume did not increase
tumor growth rate during treatment (LuCaP 35V xenograft [3]; four-week ip treatment, A12 alone 40 μg/kg as printed, docetaxel 10 mg/kg, docetaxel 10 mg/kg + A12): 29.6±6.1 mm^3/week
PSA levels [4]: rise
serum PSA level during the four-week treatment (LuCaP 35V xenograft [5]; A12 + docetaxel, or 20 mg/kg docetaxel alone): no significant change
serum PSA level after treatment termination (LuCaP 35V xenograft [5]; mouse, in vivo): increased
Apoptosis (%) (LuCaP 35V xenograft [6]; docetaxel 10 mg/kg groups): No apoptosis
Apoptosis (%) (LuCaP 35V xenograft [6]; docetaxel 10 mg/kg groups, listed as Doc (10)): 0%
G1 arrest (%) (LuCaP 35V xenograft [6]; docetaxel 10 mg/kg groups): 0%
G2 arrest (%) (LuCaP 35V xenograft [6]; docetaxel 10 mg/kg groups): 12%
Normal cycle (%) (LuCaP 35V xenograft [6]; docetaxel 10 mg/kg groups): 88%
Apoptosis (%) (LuCaP 35V xenograft [6]; docetaxel 20 mg/kg groups): No apoptosis
Apoptosis (%) (LuCaP 35V xenograft [6]; docetaxel 20 mg/kg groups, listed as Doc (20)): 0%
G1 arrest (%) (LuCaP 35V xenograft [6]; docetaxel 20 mg/kg groups): 0%
G2 arrest (%) (LuCaP 35V xenograft [6]; docetaxel 20 mg/kg groups): 0%
Normal cycle (%) (LuCaP 35V xenograft [6]; docetaxel 20 mg/kg groups): 100%
LuCaP 23.1 tumor growth as reflected by serum PSA levels during treatment ([7]; docetaxel 20 mg/kg once a week, A12 40 mg/kg three times a week, 4 weeks): significantly inhibited
serum PSA after treatment cessation ([7]; docetaxel 20 mg/kg, A12 40 mg/kg): began to increase
average bone density (mean±SEM) ([7]; week five, docetaxel 20 mg/kg, A12 40 mg/kg): 0.09±0.02

IMC-A12: human IgG1 anti-IGF-IR antibody; heavy chain variable domain SEQ ID NO:41, light chain variable domain SEQ ID NO:51
cross-reactivity with murine IGF-IR (murine IGF-IR): greater than 95%
loss of bone density (osteoporosis), non-tumored legs (LuCaP 23.1 xenograft; 40 mg/kg IMC-A12): did not cause a loss of bone density
Bone mineral density (BMD), Non-tumored leg, Mean (LuCaP 23.1 xenograft; [9]): 0.045
Bone mineral density (BMD), Tumored Leg, Mean (LuCaP 23.1 xenograft; [9]): significantly reduced
Bone mineral density (BMD), Tumored Leg, Mean (LuCaP 23.1 xenograft; 40 mg/kg IMC-A12 i.p. three times a week for six weeks, at sacrifice, listed as A12): 0.060
Serum PSA levels (LuCaP 23.1 xenograft; 40 mg/kg IMC-A12 vs untreated): significantly lower
tumor progression on radiographs (LuCaP 23.1 xenograft; 40 mg/kg IMC-A12 vs untreated): significantly reduced or prevented
serum A12 level ([8]; four weeks after treatment cessation): very low level
decline of serum A12 levels ([8]; two weeks after treatment cessation, animals received docetaxel combined with A12): 100 fold
